Holding throughout (type): cell-based, mouse
The subject of assay [1] is SRE promoter. Kind of assay: SRE-luciferase promoter-reporter assay in WT MEF. Conditions: TGFβ 1 ng/mL. Here is the method: (§1) For SRE promoter-reporter assays WT and MK2^−/− MEF, were transfected with the SRE.L-luciferase vector which contains two copies of SRE.L, a derivative of c-fos serum response element driving the expression of luciferase. The SRE.L vector was introduced alone in the case of WT MEF, and co-transfected with pMEpuro (a selection vector which confers resistance to puromycin to eukaryotic cells) in the case of MK2^−/− MEF. The vectors were introduced (5 μg of SRE.L, and 0.5 μg pMEpuro) into MEF using lipofectamine. Stable transfected WT MEF cell lines were obtained by selection with geneticin, and resistant colonies were isolated, expanded, and then screened for baseline luciferase activity. Since the MK2^−/− MEF were already resistant to geneticin, stable transfectants produced by co-transfection with pMEpuro were selected with puromycin, and resistant clones were isolated and expanded as above. The firefly luciferase activity was assayed using a kit from Promega (Madison, Wis.) according to the manufacturer's instructions. In brief, cells were lysed and the substrate (beetle luciferin) was added to the lysate. Next, chemiluminescence was measured using a luminometer.
Since smα induction by several agents including TGFβ has been reported to occur through activation of serum response elements (SRE) in the smα promoter, whether this activation occurs in WT MEF was tested.

For assay [2], the system named is SRE promoter. Put plainly: SRE-luciferase promoter-reporter assay in MK2−/− MEF. Conditions: TGFβ 1 ng/mL. On the procedure: as §1
Since MK2 has been reported to phosphorylate SRF, whether the effect of MK2 suppression on smα expression is due to its effect on the SRE promoter was tested. […]

The subject of assay [3] is WT MEF. Kind of assay: smα-actin protein level by Western blot in WT MEF. Conditions: TGFβ 1 ng/mL for 24 hours. On the procedure: (§2) Aliquots from the cell lysates prepared as described above were assayed for protein using the Bradford protein assay and then diluted with 2× Laemmli loading buffer for SDS-PAGE. Equal amounts of protein were then loaded in each well of 4-20% Tris/glycine gels. After electrophoresis for 90 min at 125 V constant voltage, the gel was blotted onto an Immobilon-P membrane by electrophoretic transfer at 25 V constant voltage overnight. The membrane was then washed, blocked with 5% milk, and probed with antibodies against MK2 (Cell Signaling, Beverly, Mass.) smα (Sigma, St. Louis, Mo.) or pan-actin (Santa Cruz, Santa Cruz, Calif.). The immunoreactive bands were visualized using a secondary antibody conjugated to horseradish peroxidase (Pierce, Rockford, Ill.).and a chemiluminescent substrate according to the manufacturer's instructions (SuperSignal, Pierce, Rockford, Ill.). The intensity of the bands was quantified using a UnScanIt software (Orem, Utah).
(§3) TGFβhas been implicated in the fibrotic response because of its ability to induce differentiation of fibroblasts into myofibroblasts. Whether TGFβ can induce myofibroblast differentiation in both WT MEF and MK2^−/− MEF was tested. Cells were growth arrested in serum free media for 24 hr then exposed to TGFβ (1 ng/mL).
Background: Immunoblotting shows a protein as a band on a membrane.

For assay [4], the system named is MK2−/− MEF. Kind of assay: smα-actin protein level by Western blot in MK2−/− MEF. Conditions: TGFβ 1 ng/mL for 24 hours. Here is the method:
as §2, §3

The test system of assay [5] is WT MEF. Put plainly: smα mRNA level by semiquantitative RT-PCR in WT MEF. Conditions: TGFβ 1 ng/mL for 24 hours. On the procedure: (§4) Semiquantitative RT-PCR to measure mRNA in mouse MEF was used. In brief, RNA was isolated from treated or untreated MEF using the RNeasy kit (Qiagen, Valencia, Calif.) according to manufacturesr's instructions. The amount of RNA was determined spectrophotometrically, and equal amounts were used to generate cDNA by reverse transcription using the Superscript III system (Invitrogen, Carlsbad, Calif.) according to manufacturer's instructions. Next an equal volume of the cDNA was added to a master mix containing the following primers. For sma, the primers 5′-GCATCCACGAAACCACCTA-3′ and 5′-[…]-3′ were used to generate a 418 bp PCR product from mouse smooth muscle α-actin cDNA. For β-actin, the primers 5′-[…]-3′ and 5′-[…]-3′) were used to generate 348 bp product from mouseβ-actin cDNA. The primers 5′-[…]-3′ and 5′-[…]3′ were used to generate a 142 bp product from mouse procollagen type I alpha 1 cDNA. The PCR reaction was carried out as using a Bio-Rad I-cycler thermal cycler (Hercules, Calif.). […] After staining with ethidium bromide, photographs of the gels were taken, scanned, and the intensity of the bands was measured using UnScanIt software (Orem, Utah). The relative amount of smα and procollagen RNA was determined by dividing the intensity of their corresponding PCR product band by the intensity of the β-actin PCR product band.

Assay [6] has as its system MK2−/− MEF. Put plainly: smα mRNA level by semiquantitative RT-PCR in MK2−/− MEF. Conditions: TGFβ 1 ng/mL for 24 hours. Here is the method:
as §4

Assay [7] relates to WT MEF. Kind of assay: procollagen type I α1 mRNA level by RT-PCR in WT MEF. Conditions: TGFβ 1 ng/mL for 24 hours. On the procedure:
as §4

Assay [8] deals with MK2−/− MEF. Put plainly: procollagen type I α1 mRNA level by RT-PCR in MK2−/− MEF. Conditions: TGFβ 1 ng/mL for 24 hours. Here is the method:
as §4

Setting [9] is: SB-203580 1 μM, measured at 6 hours.
Where [10] appears, read: greatest after 6 hours, baseline by 24 hours.

“Also recorded” adds a separate entry of the source.

As for `C[S+]([O-])c1ccc(-c2nc(-c3ccncc3)c(-c3ccc(F)cc3)[nH]2)cc1` (stereo not shown) [SB-203580, reference compound], the “block of TGFβ activation of SRE-luciferase promoter” value was “partially blocked” in the assay on SRE promoter [1] (setting [9]) and “completely blocked” with SRE promoter [2] (setting [9]).
As for TGFβ, the SRE-luciferase promoter activity result in the assay on SRE promoter [1] (setting [10]) and in the assay with SRE promoter [2] (setting [10]) was “SRE promoter activity increased; also recorded: caused activation” in each case. The smα-actin protein level entry in the assay on WT MEF [3] was “smα-actin level increased; also recorded: produce more sma”; in the assay on MK2−/− MEF [4], “did not respond to TGFβ by increasing smα-actin; also recorded: produce even less smα”. The figures for the “smα mRNA level” value in the assay on WT MEF [5] and in the assay with MK2−/− MEF [6] were “increased; also recorded: appeared to increase” and “significantly reduced; also recorded: significantly decreased”, respectively. Further, the “procollagen type I α1 mRNA level” value with WT MEF [7] is “did not appear to alter”; in the assay with MK2−/− MEF [8] it was “did not appear to alter; also recorded: did not suppress”.

(Values after patent US20090325871A1, “Role of the Mk2 Pathway in Wound Repair” (priority 2006, published 2009).)
